These are literature values, as cited in patent publication US8536169B2, “Compounds” (Glaxo Group Limited, priority 2008, dated 2013).

For one series, the system named is Class I PI3-kinases. Conditions: read-out: IC50 against each of the various Class I PI3-kinases.
For series [1], the system named is neutrophils. The following applies: treatment of neutrophils; Thelen et al. 1994.
The subject of series [2] is neutrophils.
Series [3] deals with neutrophils. This is another data set of the same source.

On to wortmannin, for which the half-inhibitory concentration (IC50) with Class I PI3-kinases is 1 to 10 nM. Besides, in the series with neutrophils [1], the “fMLP-induced respiratory burst response” value is “prevents”. Besides, the superoxide release result in the series on neutrophils [2] is “block”. Moreover, in the series on neutrophils [3], the neutrophil migration result is on record as “block”.
Consider `O=c1cc(N2CCOCC2)oc2c(-c3ccccc3)cccc12` [LY294002], for which the superoxide release result with neutrophils [2] is “block”. Besides, the neutrophil migration entry in the series on neutrophils [3] was “block”. Besides, the “inhibitory activity on phospholipases” value in the series on phospholipases was “some inhibitory activity”.
